{"source": "paper PMC11075021", "about": "“Asymmetric Synthesis of Chiral 2-Cyclohexenones with Quaternary Stereocenters via Ene-Reductase Catalyzed Desymmetrization of 2,5-Cyclohexadienones” (ACS Catalysis, 2024)", "target": "T1, YqjM (Bacillus subtilis, UniProt P54550)", "T1 construct": "gene namA; wild type, purified recombinant enzyme; dimer, both protomers line the active site", "T1 sequence (P54550 2-338)": "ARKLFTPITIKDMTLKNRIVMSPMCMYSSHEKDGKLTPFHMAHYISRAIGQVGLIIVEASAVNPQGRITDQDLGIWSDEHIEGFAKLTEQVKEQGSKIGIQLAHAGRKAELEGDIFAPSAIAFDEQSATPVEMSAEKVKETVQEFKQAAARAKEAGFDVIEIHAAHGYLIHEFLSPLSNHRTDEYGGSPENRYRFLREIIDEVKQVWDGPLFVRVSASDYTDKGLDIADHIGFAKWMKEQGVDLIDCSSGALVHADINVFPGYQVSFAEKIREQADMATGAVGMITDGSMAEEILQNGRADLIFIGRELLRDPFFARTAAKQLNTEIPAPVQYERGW", "assay": "stopped-flow oxidation of prereduced enzyme", "assay_type": "biochemical", "details": "anoxic; no kinetic saturation in the accessible range", "data": [{"smiles": "C[C@@]1(c2ccccc2)C=CC(=O)CC1", "note": "[2a, cyclohexenone 2a]", "values": [{"measurement": "kobs at 800 μM", "value": "Both compounds oxidized prereduced YqjM relatively slowly"}]}]}
